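These data come from cells grown in 96-well plates and exposed to compound for 48 hours at five concentrations. GI50 is the concentration that inhibits growth by half.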 Activity calls are given as the source filed them. Cut-off read from the data, not from the text of the source: active = GI50 up to about 1.1 µM and inactive = higher.
Columns and labels:
Assay in all cases: NCI tumour cell line growth inhibition, 48 h
NCI-H460 = test system: NCI-H460
NCI-H23 = test system: NCI-H23
HCT-116 = test system: HCT-116
HT-29 = test system: HT-29
ACHN = test system: ACHN
OVCAR-4 = test system: OVCAR-4
Hs-578T = test system: Hs-578T
HCC 2998 = test system: HCC 2998
CAKI-1 = test system: CAKI-1
COLO 205 = test system: COLO 205
SF-295 = test system: SF-295
NCI/ADR-RES = test system: NCI/ADR-RES
NCI-H226 = test system: NCI-H226
SK-OV-3 = test system: SK-OV-3
A549 = test system: A549
HOP-62 = test system: HOP-62
A498 = test system: A498
786-0 = test system: 786-0
M14 = test system: M14
HOP-92 = test system: HOP-92
TK-10 = test system: TK-10
OVCAR-3 = test system: OVCAR-3
OVCAR-5 = test system: OVCAR-5
SK-MEL-5 = test system: SK-MEL-5
MDA-MB-231 = test system: MDA-MB-231
SW-620 = test system: SW-620
IGROV-1 = test system: IGROV-1
OVCAR-8 = test system: OVCAR-8
DU-145 = test system: DU-145
EKVX = test system: EKVX
U-251 = test system: U-251
HCT-15 = test system: HCT-15
CCRF-CEM = test system: CCRF-CEM
KM12 = test system: KM12
RXF 393 = test system: RXF 393
MCF7 = test system: MCF7
SN12C = test system: SN12C
SF-539 = test system: SF-539
SF-268 = test system: SF-268
UO-31 = test system: UO-31
MOLT-4 = test system: MOLT-4
LOX IMVI = test system: LOX IMVI
BT-549 = test system: BT-549
SNB-75 = test system: SNB-75
HL-60 = test system: HL-60
SK-MEL-28 = test system: SK-MEL-28
MDA-MB-435 = test system: MDA-MB-435
SNB-19 = test system: SNB-19
UACC-62 = test system: UACC-62
NCI-H522 = test system: NCI-H522
PC-3 = test system: PC-3
MDA-N = test system: MDA-N
UACC-257 = test system: UACC-257
SK-MEL-2 = test system: SK-MEL-2
Malme-3M = test system: Malme-3M
K562 = test system: K562
SR = test system: SR
RPMI-8226 = test system: RPMI-8226

C[n+]1c(-c2ccccc2)cc2/c(=C\c3ccc([N+](=O)[O-])cc3)c3ccccc3n21
GI50 (NCI-H460): 1.45 µM (inactive)
GI50 (NCI-H23): 2.51 µM (inactive)
GI50 (HCT-116): 1.02 µM (active)
GI50 (HT-29): 0.957 µM (active)
GI50 (ACHN): 3.1 µM (inactive)
GI50 (OVCAR-4): 26.1 µM (inactive)
GI50 (Hs-578T): 1.29 µM (inactive)
GI50 (HCC 2998): 11.3 µM (inactive)
GI50 (CAKI-1): 15.8 µM (inactive)
GI50 (COLO 205): 0.532 µM (active)
GI50 (SF-295): 3.21 µM (inactive)
GI50 (NCI/ADR-RES): > 100 µM (inactive)
GI50 (NCI-H226): 2.65 µM (inactive)
GI50 (SK-OV-3): 4.8 µM (inactive)
GI50 (A549): 2.15 µM (inactive)
GI50 (HOP-62): 4.84 µM (inactive)
GI50 (A498): 11 µM (inactive)
GI50 (786-0): 1.52 µM (inactive)
GI50 (M14): 5.24 µM (inactive)
GI50 (HOP-92): 1.66 µM (inactive)
GI50 (TK-10): 9.06 µM (inactive)
GI50 (OVCAR-3): 3.06 µM (inactive)
GI50 (OVCAR-5): 6.85 µM (inactive)
GI50 (SK-MEL-5): 1.95 µM (inactive)
GI50 (MDA-MB-231): 3.24 µM (inactive)
GI50 (SW-620): 1.79 µM (inactive)
GI50 (IGROV-1): 1.39 µM (inactive)
GI50 (OVCAR-8): 1.66 µM (inactive)
GI50 (DU-145): 1.74 µM (inactive)
GI50 (EKVX): 7.29 µM (inactive)
GI50 (U-251): 1.43 µM (inactive)
GI50 (HCT-15): 14.3 µM
GI50 (CCRF-CEM): 0.692 µM (active)
GI50 (KM12): 3.29 µM (inactive)
GI50 (RXF 393): 4.45 µM (inactive)
GI50 (MCF7): 2.1 µM (inactive)
GI50 (SN12C): 2.17 µM (inactive)
GI50 (SF-539): 0.615 µM (active)
GI50 (SF-268): 3.47 µM (inactive)
GI50 (UO-31): 6.05 µM (inactive)
GI50 (MOLT-4): 0.966 µM (active)
GI50 (LOX IMVI): 2.63 µM (inactive)
GI50 (BT-549): 0.281 µM (active)
GI50 (SNB-75): 3.18 µM (inactive)
GI50 (HL-60): 0.764 µM (active)
GI50 (SK-MEL-28): 7.41 µM (inactive)
GI50 (MDA-MB-435): 2.54 µM (inactive)
GI50 (SNB-19): 3.06 µM (inactive)
GI50 (UACC-62): 6.35 µM (inactive)
GI50 (NCI-H522): 0.385 µM (active)
GI50 (PC-3): 3.1 µM (inactive)
GI50 (MDA-N): 2.37 µM (inactive)
GI50 (UACC-257): 4.99 µM (inactive)
GI50 (SK-MEL-2): 3.01 µM (inactive)

CCOC(=O)N1CCN(Cc2cc(=O)n3cc(C)ccc3n2)CC1
GI50 (NCI-H460): > 100 µM (inactive)
GI50 (NCI-H23): > 100 µM (inactive)
GI50 (HCT-116): > 100 µM (inactive)
GI50 (HT-29): > 100 µM (inactive)
GI50 (ACHN): > 100 µM (inactive)
GI50 (Malme-3M): > 100 µM (inactive)
GI50 (K562): > 100 µM (inactive)
GI50 (OVCAR-4): > 100 µM (inactive)
GI50 (Hs-578T): > 100 µM (inactive)
GI50 (HCC 2998): > 100 µM (inactive)
GI50 (CAKI-1): > 100 µM (inactive)
GI50 (COLO 205): > 100 µM (inactive)
GI50 (SF-295): > 100 µM (inactive)
GI50 (NCI/ADR-RES): > 100 µM (inactive)
GI50 (NCI-H226): > 100 µM (inactive)
GI50 (SK-OV-3): > 100 µM (inactive)
GI50 (A549): > 100 µM (inactive)
GI50 (HOP-62): > 100 µM (inactive)
GI50 (786-0): > 100 µM (inactive)
GI50 (M14): > 100 µM (inactive)
GI50 (HOP-92): > 100 µM (inactive)
GI50 (TK-10): > 100 µM (inactive)
GI50 (OVCAR-3): > 100 µM (inactive)
GI50 (OVCAR-5): > 100 µM (inactive)
GI50 (MDA-MB-231): > 100 µM (inactive)
GI50 (SW-620): > 100 µM (inactive)
GI50 (IGROV-1): > 100 µM (inactive)
GI50 (OVCAR-8): > 100 µM (inactive)
GI50 (DU-145): > 100 µM (inactive)
GI50 (EKVX): > 100 µM (inactive)
GI50 (U-251): > 100 µM (inactive)
GI50 (HCT-15): > 100 µM
GI50 (CCRF-CEM): > 100 µM (inactive)
GI50 (KM12): > 100 µM (inactive)
GI50 (MCF7): > 100 µM (inactive)
GI50 (SN12C): > 100 µM (inactive)
GI50 (SF-539): > 100 µM (inactive)
GI50 (SF-268): > 100 µM (inactive)
GI50 (UO-31): > 100 µM (inactive)
GI50 (MOLT-4): > 100 µM (inactive)
GI50 (LOX IMVI): > 100 µM (inactive)
GI50 (BT-549): > 100 µM (inactive)
GI50 (SNB-75): > 100 µM (inactive)
GI50 (HL-60): > 100 µM (inactive)
GI50 (SK-MEL-28): > 100 µM (inactive)
GI50 (MDA-MB-435): > 100 µM (inactive)
GI50 (SNB-19): > 100 µM (inactive)
GI50 (UACC-62): > 100 µM (inactive)
GI50 (SR): > 100 µM (inactive)
GI50 (NCI-H522): > 100 µM (inactive)
GI50 (PC-3): > 100 µM (inactive)
GI50 (MDA-N): > 100 µM (inactive)
GI50 (UACC-257): > 100 µM (inactive)
GI50 (SK-MEL-2): > 100 µM (inactive)
GI50 (RPMI-8226): > 100 µM (inactive)

— ChEMBL document CHEMBL1201862, “PubChem BioAssay data set” (2004)
